Results taken from US20030199530A1, “New compounds derived from quinazoline” (priority 2002, published 2003).

What was measured:
FTase = target: T1, FTase (Rattus norvegicus, UniProt Q02293+Q04631); test: FTase enzyme test (scintillation proximity assay); type: biochemical; conditions: rat brain FTase, biotinylated lamin B peptide, [3H]farnesyl pyrophosphate, 37° C., one hour; read-out: IC50 with respect to FTase
T1 construct: The two enzymes FTase and GGTase-I were purified starting from rat's brain; from tissue; host or cells: rat brain
Method: The two enzymes FTase and GGTase-I were purified starting from rat's brain. After grinding and centrifuging, the supernatant is precipitated with 30% ammonium sulphate and the resulting supernatant is subjected to another precipitation with 50% ammonium sulphate. The pellet is then passed through a column of phenyl agarose and the fractions collected after elution with sodium chloride are evaluated for their enzyme content in accordance with the “scintillation proximity assay” method described hereinbelow. The fractions corresponding to one or other of the two enzymes are then combined and frozen at −80° C. until use.
The determination of the enzymatic activity of the FTase is carried out in 96-well plates by a radioactive scintillation proximity assay method. The acceptor substrate composed of the carboxy terminal sequence of lamin B (YRASNRSCAIM) coupled to biotin is incubated in the presence of the radiolabelled donor substrate ([^3H]farnesyl pyrophosphate), and of various concentrations of test compounds in dimethyl sulphoxide (DMSO). The reaction is initiated at 37° C. by adding FTase enzyme for a duration of one hour, and is then stopped with an appropriate buffer containing a suspension of beads impregnated with scintillant. […]

[1] = test system: cells transfected with v-H-ras; test: Cell proliferation test (MTT) on RAT2 fibroblasts transfected with v-H-ras; type: cell-based; conditions: Rattus norvegicus, 96 h, RAT2 transfectant, 10% serum, four days, read-out: IC50 of inhibition of growth of cells transfected by the oncogene v-H-ras
Method: a) The RAT2 line of rat fibroblasts and an appropriate transfectant for the insertion of the gene v-H-ras were used to test the effectiveness of the claimed products on cells.
The parental and transfected cells are cultured in 96-well plates for cell culture in the presence of medium containing 10% serum. Twenty four hours later, the test products are added to the same medium over a period of four days and the final quantity of cells is estimated indirectly by the cell viability method using 3-(4,5-dimethylthiazol-2-yl)-2,5-diphenyltetrazolium bromide (MTT).

IC50 (FTase): 19 nM
Structure (SMILES): CC(C)(C)OC(=O)Nc1ccc(-n2c(=O)c3ccccc3n(CC(Cc3ccccc3)Cn3ccnc3)c2=O)cc1 (centres unmarked) [Example 2, tert-Butyl 4-(1-[2-benzyl-3-(1H-imidazol-1-yl)propyl]-2,4-dioxo-1,4-dihydro-3(2H)-quinazolinyl)phenylcarbamate]
IC50 [1]: 9 nM
